# Data published in paper PMC7093798 (Data in Brief, 2019).
# Tested on: aminopyrine N-demethylase activity (CYP)
# Assay: CYP inhibition: aminopyrine N-demethylase
# Type: in vitro ADME, rat
# Conditions: RLM, 1–100 μM
smiles,measurement,value
O=C(/C=C/c1cccnc1)NCCCCC1CCN(C(=O)c2ccccc2)CC1 [FK866],AND inhibitory activity (in words),mild AND inhibitory activity only at 100 μM concentration
